Measurements from patent US11440913B2, “Aminoimidazopyridazines as kinase inhibitors” (BRISTOL-MYERS SQUIBB COMPANY, priority 2017, dated 2022).
Where a name gives a salt, the structure may show the parent alone. Read-outs that look alike come from different tables or passages of the source.

Columns and labels:
[1] = biological target: His-GST-TVMV-hRIPK1(1-324) (Homo sapiens (Human), UniProt Q13546); experiment: RIPK1 HTRF Binding Assay; settings: HTRF binding, 1 h at rt; read-out: RIPK1 (IC50)
His-GST-TVMV-hRIPK1(1-324), sequence (Q13546 1-324): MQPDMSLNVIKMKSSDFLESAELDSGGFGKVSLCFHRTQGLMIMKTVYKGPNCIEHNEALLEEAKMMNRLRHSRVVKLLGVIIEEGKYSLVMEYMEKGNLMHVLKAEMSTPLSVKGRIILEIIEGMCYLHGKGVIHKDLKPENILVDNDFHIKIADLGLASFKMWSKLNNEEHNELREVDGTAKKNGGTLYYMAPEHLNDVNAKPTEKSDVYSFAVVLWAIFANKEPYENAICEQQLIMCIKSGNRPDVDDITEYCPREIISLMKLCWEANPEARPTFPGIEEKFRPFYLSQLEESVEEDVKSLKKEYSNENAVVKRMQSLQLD
Description: A solution was prepared containing 0.2 nM Anti GST-Tb (Cisbio, 61GSTTLB), 90.6 nM probe and 1 nM His-GST-TVMV-hRIPK1(1-324) in FRET Buffer (20 mM HEPES, 10 mM MgCl2, 0.015% Brij-35, 4 mM DTT, 0.05 mg/mL BSA). Using Formulatrix Tempest, the detection antibody/enzyme/probe solution ([…]) was dispensed into wells of a 1536 plate (Black Low Binding Polystyrene 1536 Plate (Corning, 3724)) containing 10 nL of compounds of interest at appropriate concentration in DMSO. The plate was incubated at rt for 1 h. FRET was measured using the EnVision plate reader (Excitation: 340 nm, Emission: 520 nm/[…]). Total signal (0% inhibition) was calculated from wells containing 10 nL DMSO only.
The coding region of human RIPK1(1-324) flanked by NdeI site at 5′ end and stop codon TGA and XhoI site at 3′ end was codon optimized and gene synthesized at GenScript USA Inc. (Piscataway, N.J.) and subcloned into a modified pFastBacl vector (Invitrogen, Carlsbad, Calif.) with N-terminal His-GST-TVMV tag, to generate His-GST-TVMV-hRIPK1(1-324)-pFB. The fidelity of the synthetic fragment was confirmed by sequencing.

[2] = system: MLKL phosphorylation in HT29-L23 human colorectal adenocarcinoma cells; experiment: MLKL Phosphorylation High-Content Assay; format: cell-based; settings: 6 h, necroptosis induced with TNFα, SMAC mimetic and Z-VAD, read-out: pMLKL (IC50)
Description: MLKL Phosphorylation High-Content Assay
HT29-L23 human colorectal adenocarcinoma cells were maintained in RPMI 1640 medium containing 10% heat-inactivated FBS, 1% Pennicilin-Streptomycin and 10 mM HEPES. Cells were seeded at 2,000 cells/well in 384 w tissue culture-treated microplates (Greiner #781090-3B) and incubated at 37° C. (5% CO2/95% O2) for two days. On the day of assay, the cells were treated with test compounds at final concentrations of 6.25 to 0.106 μM for 30 min at 37° C. (5% CO2/95% O2). Necroptopsis was induced using a mixture of human TNFα (35 ng/mL) (Peprotech #300-01A), SMAC mimetic (from US 2015/0322111 A1) (700 nM) and Z-VAD (140 nM) (BD pharmingen #51-6936). Following six hours incubation at 37° C. (5% CO2/95% O2), the cells were fixed with 4% formaldedye (ACROS 11969-0010) for 15 min at room temperature and then permeabilized with phoshpate buffered saline (PBS) containing 0.2% Triton-X-100 for 10 min. MLKL phosporylation was detected using anti-MLKL (phospho S358) antibody (Abcam # ab187091) (1:1000 dilution in Blocking Buffer [PBS supplemented with 0.1% BSA]) with overnight incubation at 4° C. After washing three times in PBS, goat anti-rabbit Alexa-488 (1:1000 dilution) (Life Technologies, A11008) and Hoechst 33342 (Life Technologies, H3570) (1:2000 dilution) in Blocking Buffer were added for 1 h at room temperature. Following another three cycles of washes in PBS, the microplates were sealed, and cellular images were acquired in the Cellomics ArrayScan VTI high-content imager equipped with an X1 camera. Fluorescent images were taken using a 10× objective and the 386-23 BGRFRN_BGRFRN and 485-20 BGRFRN_BGRFRN filter sets, for nuclei and MLKL phosphorylation, respectively. The image sets were analyzed using the Compartmental Analysis Bioapplication software (Cellomics). The level of MLKL phosphorylation was quantified as MEAN_CircRingAvgIntenRatio. […] The IC50 value was defined as the concentration of compound that produces 50% of the maximal inhibition. The data were fitted using the 4-parameter logistic equation to calculate the IC50 and Ymax values.

COc1ncc(-c2ccc3nc(NC(C)=O)cn3n2)cc1C(=O)NCc1cc(F)ccc1OCC(F)(F)F [Example 105, 5-{2-acetamidoimidazo[1,2-b]pyridazin-6-yl}-N-{[5-fluoro-2-(2,2,2-trifluoroethoxy)phenyl]methyl}-2-methoxypyridine-3-carboxamide]
IC50 [1]: 5 nM
IC50 ([2]; Homo sapiens): 17 nM

CC(=O)Nc1cn2nc(-c3cnc(C)c(C(=O)NCc4ccccc4OCC(F)(F)F)c3)ccc2n1 [Example 193, 5-{2-acetamidoimidazo[1,2-b]pyridazin-6-yl}-2-methyl-N-{[2-(2,2,2-trifluoroethoxy)phenyl]methyl}pyridine-3-carboxamide]
IC50 [1]: 56 nM
IC50 ([2]; Homo sapiens): 61 nM

CCC(=O)Nc1cn2nc(-c3cnc(OC)c(C(=O)NCc4cc(OC(F)(F)F)ccc4F)c3)ccc2n1 [Example 10, N-{[2-fluoro-5-(trifluoromethoxy)phenyl]methyl}-2-methoxy-5-{2-propanamidoimidazo[1,2-b]pyridazin-6-yl}pyridine-3-carboxamide]
IC50 [1]: 11 nM
IC50 ([2]; Homo sapiens): 33 nM

CC(=O)Nc1cn2nc(-c3cncc(C(=O)N[C@H](C)c4cc(OC(F)(F)F)ccc4F)c3)ccc2n1 [Example 235, 5-{2-acetamidoimidazo[1,2-b]pyridazin-6-yl}-N-[(1R)-1-[2-fluoro-5-(trifluoromethoxy)phenyl]ethyl]pyridine-3-carboxamide]
IC50 [1]: 345 nM
IC50 ([2]; Homo sapiens): 355 nM

CC(=O)Nc1cn2nc(-c3cc(F)c(C)c(C(=O)NCc4cc(OC(F)(F)F)ccc4F)c3)ccc2n1 [Example 359, 5-{2-acetamidoimidazo [1,2-b]pyridazin-6-yl}-3-fluoro-N-{[2-fluoro-5-(trifluoromethoxy)phenyl]methyl}-2-methylbenzamide]
IC50 [1]: 78 nM
IC50 ([2]; Homo sapiens): 5 nM

COc1ncc(-c2ccc3nc(NC(C)=O)cn3n2)cc1C(=O)NCc1c(F)ccc(F)c1OC [Example 141, N-[(3,6-difluoro-2-methoxyphenyl)methyl]-5-{2-acetamidoimidazo[1,2-b]pyridazin-6-yl}-2-methoxypyridine-3-carboxamide]
IC50 [1]: 97 nM
IC50 ([2]; Homo sapiens): 256 nM

N-({3,5-difluoro-2-[(3S)-oxolan- 3-yloxy]phenyl}methyl)-5-{2- acetamidoimidazo[1,2-b]pyridazin- 6-yl}-2-(D3)methoxypyridine- 3-carboxamide [Example 45]
IC50 [1]: 13 nM
IC50 [2]: 25 nM

[2H]C([2H])([2H])[C@H](NC(=O)c1ccc(C)c(-c2ccc3nc(NC(C)=O)cn3n2)c1F)c1cc(OC(F)(F)F)ccc1F [Example 429, 3-{2-acetamidoimidazo [1,2-b]pyridazin-6-yl}-2-fluoro-N-[(1S)-1-[2-fluoro-5-(trifluoromethoxy)phenyl](2,2,2-Â^2Hâ,f)ethyl]-4-methylbenzamide]
IC50 [1]: 9 nM
IC50 ([2]; Homo sapiens): 20 nM

CC(=O)Nc1cn2nc(-c3cnc(Cl)c(C(=O)NCc4cc(C(F)(F)F)ccc4Cl)c3)ccc2n1 [Example 274, 2-chloro-N-{[2-chloro-5-(trifluoromethyl)phenyl]methyl}-5-{2-acetamidoimidazo[1,2-b]pyridazin-6-yl}pyridine-3-carboxamide, TFA]
IC50 [1]: 11 nM
IC50 ([2]; Homo sapiens): 31 nM

COc1ncc(-c2ccc3nc(NC(C)=O)cn3n2)cc1C(=O)N[C@H](C)c1cccc(OC(F)(F)F)c1 [Example 112, 5-{2-acetamidoimidazo[1,2-b]pyridazin-6-yl}-2-methoxy-N-[(1R)-1-[3-(trifluoromethoxy)phenyl](2,2,2-deutero)ethyl]pyridine-3-carboxamide]
IC50 [1]: 17 nM
IC50 [2]: 73 nM

CC(=O)Nc1cn2nc(-c3cnc(Cl)c(C(=O)NCc4cc(OC(F)(F)F)ccc4F)c3)ccc2n1 [Example 12, 2-chloro-5-{2-acetamidoimidazo[1,2-b]pyridazin-6-yl}-N-{[2-fluoro-5-(trifluoromethoxy)phenyl]methyl}pyridine-3-carboxamide]
IC50 [1]: 5 nM
IC50 ([2]; Homo sapiens): 27 nM

CC(=O)Nc1cn2nc(-c3cc(C(=O)NCc4cc(F)cc(F)c4OCC4CC4)cnc3C)ccc2n1 [Example 16, N-{[2-(cyclopropylmethoxy)-3,5-difluorophenyl]methyl}-5-{2-acetamidoimidazo[1,2-b]pyridazin-6-yl}-6-methylpyridine-3-carboxamide]
IC50 [1]: 4 nM
IC50 ([2]; Homo sapiens): 5 nM

[2H]C([2H])(NC(=O)c1cc(-c2ccc3nc(NC(=O)CO)cn3n2)cnc1C)c1cc(F)cc(F)c1OC1CCOCC1 [Example 184, N-{[3,5-difluoro-2-(oxan-4-yloxy)phenyl](deutero)methyl}-5-[2-(2-hydroxyacetamido)imidazo [1,2-b]pyridazin-6-yl]-2-methylpyridine-3-carboxamide]
IC50 [1]: 9 nM
IC50 ([2]; Homo sapiens): 177 nM

COc1ncc(-c2ccc3nc(NC(C)=O)cn3n2)cc1C(=O)NCc1cc(F)ccc1OC1CCCC1 [Example 166, N-{[2-(cyclopentyloxy)-5-fluorophenyl]methyl}-5-{2-acetamidoimidazo[1,2-b]pyridazin-6-yl}-2-methoxypyridine-3-carboxamide]
IC50 [1]: 4 nM
IC50 ([2]; Homo sapiens): 1 nM

CC(=O)Nc1cn2nc(-c3cnc(C)c(C(=O)N4CCCC(C(O)c5ccc(F)cc5)C4)c3)ccc2n1 (single isomer, unassigned) [Example 354, N-[6-(5-{3-[(4-fluorophenyl)(hydroxy)methyl]piperidine-1-carbonyl}-6-methylpyridin-3-yl)imidazo[1,2-b]pyridazin-2-yl]acetamide]
IC50 [1]: 212 nM
IC50 [2]: 223 nM

COc1ncc(-c2ccc3nc(NC(C)=O)cn3n2)cc1C(=O)NCc1ccccc1S(=O)(=O)C1CC1 [Example 158, N-{[2-(cyclopropanesulfonyl)phenyl]methyl}-5-{2-acetamidoimidazo[1,2-b]pyridazin-6-yl}-2-methoxypyridine-3-carboxamide]
IC50 [1]: 31 nM
IC50 ([2]; Homo sapiens): 336 nM

CC(=O)Nc1cn2nc(-c3cccc(C(=O)NCc4cc(OC(F)(F)F)ccc4F)c3F)ccc2n1 [Example 424, 3-{2-acetamidoimidazo [1,2-b]pyridazin-6-yl}-2-fluoro-N-{[2-fluoro-5-(trifluoromethoxy)phenyl]methyl} benzamide]
IC50 [1]: 2 nM
IC50 ([2]; Homo sapiens): 3 nM

COc1ncc(-c2ccc3nc(NC(C)=O)cn3n2)cc1C(=O)N[C@H](C)c1cc(OC(F)(F)F)ccc1F [Example 109, 5-{2-acetamidoimidazo[1,2-b]pyridazin-6-yl}-N-[(1R)-1-[2-fluoro-5-(trifluoromethoxy)phenyl](2,2,2-deutero)ethyl]-2-methoxypyridine-3-carboxamide]
IC50 [1]: 32 nM
IC50 [2]: 85 nM

COc1nc(C)c(-c2ccc3nc(NC(C)=O)cn3n2)cc1C(=O)NCc1ccccc1OC1CCOC1 (stereo not drawn) [Example 307, 5-{2-acetamidoimidazo[1,2-b]pyridazin-6-yl}-2-methoxy-6-methyl-N-{[2-(oxolan-3-yloxy)phenyl]methyl}pyridine-3-carboxamide]
IC50 [1]: 11 nM
IC50 [2]: 5 nM

COc1ccc(-c2ccc3nc(NC(C)=O)cn3n2)c(F)c1C(=O)NCc1ccccc1OCC1CC1 [Example 377, N-{[2-(cyclopropylmethoxy)phenyl]methyl}-3-{2-acetamidoimidazo [1,2-b]pyridazin-6-yl}-2-fluoro-6-methoxybenzamide]
IC50 [1]: 67 nM
IC50 ([2]; Homo sapiens): 135 nM

COc1ncc(-c2ccc3nc(NC(C)=O)cn3n2)cc1C(=O)NCc1ccccc1OCC1CCC1 [Example 155, N-{[2-(cyclobutylmethoxy)phenyl]methyl}-5-{2-acetamidoimidazo[1,2-b]pyridazin-6-yl}-2-methoxypyridine-3-carboxamide]
IC50 [1]: 2 nM
IC50 ([2]; Homo sapiens): 6 nM
